Values of other authors as cited in patent US20250312278A1, “BRIVARACETAM PHARMACEUTICAL COMPOSITION, PREPARATION METHOD THEREFOR AND USE THEREOF” (SHANGHAI BOCIMED PHARMACEUTICAL CO., LTD., priority 2020, published 2025).
Converted amounts (≈) assume the structure as drawn. Like-named read-outs stand apart in the source and are kept apart here.

Legend:
[1] = in vivo

Q: Which results are given for `CCC[C@@H]1CC(=O)N(C(CC)C(N)=O)C1` (stereo partly drawn) [Brivaracetam, (2S)-2-[(4R)-2-oxo-4-propyltetrahydron-1H-pyrro-1-yl] butanamide]?
A: solubility (buffer solution with a pH of 4.5): 850 mg/mL (≈ 4000 mM); solubility (buffer solution with a pH of 7.4): 840 mg/mL (≈ 3960 mM); solubility (hydrochloric acid solution with a pH of 1.2): 850 mg/mL (≈ 4000 mM); solubility (water): 700 mg/mL (≈ 3300 mM); terminal half-life period [1]: 9 h
